Conditions: Liquid, Falling or rolling sphere viscometry

CCCCCCC [heptane]
viscosity [mPa·s]
Conditions	303.15 K	313.15 K	323.15 K	333.15 K	343.15 K	353.15 K
100 kPa	0.368	0.33	0.303	0.273	0.245	0.231
1000 kPa	0.371	0.334	0.306	0.276	0.247	0.233
5000 kPa	0.387	0.348	0.319	0.289	0.26	0.246
10000 kPa	0.408	0.368	0.336	0.306	0.277	0.262
15000 kPa	0.429	0.388	0.354	0.323	0.294	0.278
20000 kPa	0.45	0.407	0.371	0.34	0.31	0.293
25000 kPa	0.471	0.427	0.389	0.357	0.326	0.307
30000 kPa	0.492	0.446	0.406	0.374	0.341	0.322
35000 kPa	0.514	0.465	0.424	0.39	0.357	0.336
40000 kPa	0.535	0.484	0.442	0.407	0.372	0.349
45000 kPa	0.556	0.503	0.461	0.423	0.387	0.361
50000 kPa	0.578	0.522	0.479	0.439	0.402	0.374
55000 kPa	0.6	0.542	0.498	0.456	0.416	0.386
60000 kPa	0.622	0.562	0.517	0.472	0.431	0.397

From the NIST ThermoML archive (doi:10.1021/je049662k)
